Laboratory results reported in PMC11013038, “Design, Synthesis, and Evaluation of B-(Trifluoromethyl)phenyl Phosphine–Borane Derivatives as Novel Progesterone Receptor Antagonists” (Molecules, 2024).

How the values were obtained:
[1] = biological target: T1, progesterone receptor (PR) (Homo sapiens, UniProt P06401); test: T47D alkaline phosphatase assay, PR antagonistic activity in the presence of 1 nM P4; format: cell-based; conditions: T47D cells, 1.0 nM P4, 48 h; mean ± SD from three independent experiments
T1 construct: alkaline phosphatase assay with the T47D human breast cancer cell line; endogenous in cells; host or cells: T47D
T1 sequence (P06401 1-933): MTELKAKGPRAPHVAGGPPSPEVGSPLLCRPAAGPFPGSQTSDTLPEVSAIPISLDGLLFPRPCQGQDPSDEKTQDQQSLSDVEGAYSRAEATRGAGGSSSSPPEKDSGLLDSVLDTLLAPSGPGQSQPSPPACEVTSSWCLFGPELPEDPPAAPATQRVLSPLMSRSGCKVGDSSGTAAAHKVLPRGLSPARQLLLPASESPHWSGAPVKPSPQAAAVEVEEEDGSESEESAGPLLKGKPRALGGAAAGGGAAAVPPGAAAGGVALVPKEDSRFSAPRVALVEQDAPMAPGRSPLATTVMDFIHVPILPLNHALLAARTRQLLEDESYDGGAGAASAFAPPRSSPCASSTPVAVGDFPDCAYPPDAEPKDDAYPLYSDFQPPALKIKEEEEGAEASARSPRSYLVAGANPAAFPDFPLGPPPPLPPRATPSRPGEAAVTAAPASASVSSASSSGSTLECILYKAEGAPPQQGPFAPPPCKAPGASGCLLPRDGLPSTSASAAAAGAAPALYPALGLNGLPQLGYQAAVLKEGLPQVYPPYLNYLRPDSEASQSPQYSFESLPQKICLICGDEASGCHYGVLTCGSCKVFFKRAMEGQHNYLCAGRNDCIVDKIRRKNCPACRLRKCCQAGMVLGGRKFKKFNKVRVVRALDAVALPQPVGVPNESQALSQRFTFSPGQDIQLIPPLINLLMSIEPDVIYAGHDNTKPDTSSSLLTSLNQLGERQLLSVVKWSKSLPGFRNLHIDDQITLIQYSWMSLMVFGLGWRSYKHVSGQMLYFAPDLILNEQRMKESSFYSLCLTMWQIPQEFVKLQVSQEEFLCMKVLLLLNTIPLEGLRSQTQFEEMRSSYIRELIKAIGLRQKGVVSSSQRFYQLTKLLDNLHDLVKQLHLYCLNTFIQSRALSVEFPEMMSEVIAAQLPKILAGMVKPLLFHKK
Description: The PR agonistic and antagonistic activities of the synthesized phosphine–borane derivatives were evaluated using an alkaline phosphatase assay with the T47D human breast cancer cell line. […] The basal alkaline phosphatase activity was also not affected by the tested compounds alone. […] The PR antagonistic activities of the compounds were assessed in the presence of 1 nM of P4 (5). We also calculated the molecular volume of each compound to investigate the structure–activity relationship (SAR). Table 2 summarizes the PR antagonistic activity and calculated volumes of the synthesized compounds. […] We investigated the binding affinity of the compounds toward the PR ligand-binding domain (LBD) using a fluorescence polarization assay system. […] We also investigated the activity of compounds 28 and 34 toward the androgen receptor (AR) by means of cell-proliferation promoting/inhibitory activity toward androgen-dependent SC-3 cells. […].
T47D alkaline phosphatase assays were performed as previously described, with minor modifications. Briefly, the human breast cancer cell line T47D (HMS LINCS database Accession Numbers: 50541) was routinely cultivated in RPMI 1640 medium with 10% FBS at 37 °C in a 5% CO2 humidified incubator. The cells were plated in 96-well plates and incubated overnight in a 5% CO2 humidified incubator at 37 °C. The next day, the cells were treated with a fresh medium containing the test compound in the presence of 1 nM of progesterone and further incubated for 48 h. The medium was aspirated, and the cells were fixed with 100 μL of 1.8% formalin–PBS. The fixed cells were washed with PBS, and 100 μL of an assay buffer (1 mg/mL p-nitrophenol phosphate in diethanolamine water solution, pH 9.0) was added. The mixture was incubated at room temperature for 2 h under light-shielded conditions. The absorbance was measured at 405 nm using a DTX 880 Multimode Detector (Beckman Coulter, Brea, CA, USA). All data points were measured in triplicate, and IC50 values were calculated from three independent experiments.

[2] = LogP (1-octanol/water partition coefficient) determined using HPLC; format: physicochemical; conditions: HPLC (OECD guideline), C18 column, methanol–water 75% (v/v), 40 °C, mean of triplicate
Description: Hydrophobicity is a key determinant of the activity and pharmacokinetics of biologically active compounds, and the octanol–water partition coefficient (P) and logarithm value (LogP) are widely used hydrophobicity parameters. The LogP values of the synthesized compounds were determined using HPLC [45, 46]. Table 1 summarizes the experimentally determined LogP values and calculated values. […] From the viewpoint of the phosphine structure, an increase in the number of carbon atoms increased hydrophobicity in a predictable manner.
The 1-octanol/water partition coefficient P was determined using HPLC based on the OECD Guideline for Testing Chemicals. A COSMOSIL Packed Column 5C18-MS-II (5 μm, 150 mm × 4.6 mm id, Nacalai Tesque, Inc., Kyoto, Japan) was fitted on an HPLC instrument (Multiwavelength Detector, MD-2010 Plus. JASCO, Tokyo, Japan) equipped with a pump (PU-2080, JASCO) and an oven (SSC-2120, Senshu Scientific Co., Ltd., Tokyo, Japan). The injection volume was 20 µL; the mobile phase was methanol–water 75% (v/v); and the flow rate was 1.0 mL/min in all cases. Compounds were detected by measuring the UV absorption at 240 nm. The temperature of the column was kept at 40.0 (± 0.1) °C during the measurement. The measurement was performed in triplicate, and the mean value was calculated. The dead time t0 was measured with thiourea as the unretained compound, and the capacity factor k was calculated using the equation logk = log (tr − t0/t0), where tr represents the retention time of the compound. A calibration graph was determined experimentally using reference compounds (4-methylphenol, 4-chlorophenol, 4-phenylphenol, diphenylether, fluoranthene, and dichlorodiphenyltrichloroethane) with known logP values. The LogP values of phosphine–boranes were calculated based on a calibration graph (LogP = 2.6269 logkw + 3.059, R^2 = 0.9915).

IC50 [1]: 1400 ± 880 nM
chromatographic logP [2]: 5.64
melting point: 41.1 to 41.6 °C
Compound: CN(C)[P+]([BH2-]c1ccc(C(F)(F)F)cc1)(N(C)C)N(C)C [Compound 39, B-4-(Trifluoromethyl)phenyl Tris(dimethylamino)phosphine–Borane]
